Measurements taken from the supplement of paper PMC11451515.

System: SEM cells
Assay: cell viability relative to DMSO control; higher = less cytotoxic
Conditions: 48 h
Method in brief: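 Viability was expressed as a per-plate percentage of DMSO wells, with cell-free wells as background. Leukemia cells (NOMO1 or SEM at 500 cells/well, P12-Ichikawa at 1000 cells/well) were adapted for at least four passages in each medium and seeded in 1536-well plates (5 μl). Library compounds in DMSO were pin-dosed over an 11-point threefold series from 47 μM to 0.79 nM, and CellTiter-Glo One luminescence was read after 48 h at 37°C.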

[1] = HPLM + 10% dialyzed FBS, 0.000781 µM
[2] = HPLM + 10% dialyzed FBS, 0.00234 µM
[3] = HPLM + 10% dialyzed FBS, 0.00702 µM
[4] = HPLM + 10% dialyzed FBS, 0.0211 µM
[5] = HPLM + 10% dialyzed FBS, 0.0632 µM
[6] = HPLM + 10% dialyzed FBS, 0.19 µM
[7] = HPLM + 10% dialyzed FBS, 0.569 µM
[8] = HPLM + 10% dialyzed FBS, 1.71 µM
[9] = HPLM + 10% dialyzed FBS, 5.12 µM
[10] = HPLM + 10% dialyzed FBS, 15.4 µM
[11] = HPLM + 10% dialyzed FBS, 46.1 µM
[12] = RPMI 5 mM glucose + 10% FBS, 0.000781 µM
[13] = RPMI 5 mM glucose + 10% FBS, 0.00234 µM
[14] = RPMI 5 mM glucose + 10% FBS, 0.00702 µM
[15] = RPMI 5 mM glucose + 10% FBS, 0.0211 µM
[16] = RPMI 5 mM glucose + 10% FBS, 0.0632 µM
[17] = RPMI 5 mM glucose + 10% FBS, 0.19 µM
[18] = RPMI 5 mM glucose + 10% FBS, 0.569 µM
[19] = RPMI 5 mM glucose + 10% FBS, 1.71 µM
[20] = RPMI 5 mM glucose + 10% FBS, 5.12 µM
[21] = RPMI 5 mM glucose + 10% FBS, 15.4 µM
[22] = RPMI 5 mM glucose + 10% FBS, 46.1 µM
[23] = RPMI 5 mM glucose + 10% dialyzed FBS, 0.000781 µM
[24] = RPMI 5 mM glucose + 10% dialyzed FBS, 0.00234 µM
[25] = RPMI 5 mM glucose + 10% dialyzed FBS, 0.00702 µM
[26] = RPMI 5 mM glucose + 10% dialyzed FBS, 0.0211 µM
[27] = RPMI 5 mM glucose + 10% dialyzed FBS, 0.0632 µM
[28] = RPMI 5 mM glucose + 10% dialyzed FBS, 0.19 µM
[29] = RPMI 5 mM glucose + 10% dialyzed FBS, 0.569 µM
[30] = RPMI 5 mM glucose + 10% dialyzed FBS, 1.71 µM
[31] = RPMI 5 mM glucose + 10% dialyzed FBS, 5.12 µM
[32] = RPMI 5 mM glucose + 10% dialyzed FBS, 15.4 µM
[33] = RPMI 5 mM glucose + 10% dialyzed FBS, 46.1 µM

Row | Compound | cell viability [1] [%] | cell viability [2] [%] | cell viability [3] [%] | cell viability [4] [%] | cell viability [5] [%] | cell viability [6] [%] | cell viability [7] [%] | cell viability [8] [%] | cell viability [9] [%] | cell viability [10] [%] | cell viability [11] [%] | cell viability [12] [%] | cell viability [13] [%] | cell viability [14] [%] | cell viability [15] [%] | cell viability [16] [%] | cell viability [17] [%] | cell viability [18] [%] | cell viability [19] [%] | cell viability [20] [%] | cell viability [21] [%] | cell viability [22] [%] | cell viability [23] [%] | cell viability [24] [%] | cell viability [25] [%] | cell viability [26] [%] | cell viability [27] [%] | cell viability [28] [%] | cell viability [29] [%] | cell viability [30] [%] | cell viability [31] [%] | cell viability [32] [%] | cell viability [33] [%]
1 | CC[C@@H]([C@H](C)O)n1ncn(-c2ccc(N3CCN(c4ccc(OCC5CO[C@@](Cn6cncn6)(c6ccc(F)cc6F)C5)cc4)CC3)cc2)c1=O (stereo partly drawn) | 92.3 | 110 | 107 | 107 | 114 | 100 | 107 | 100 | 102 | 59.1 | 82.7 | 96.7 | 101 | 109 | 105 | 105 | 115 | 93.8 | 103 | 86.9 | 87.7 | 78.2 | 112 | 111 | 108 | 124 | 106 | 105 | 106 | 115 | 102 | 90.7 | 81.8
2 | CCCCOc1c(C(=O)c2c(F)cc(C)cc2F)cnc2[nH]ncc12 | 107 | 111 | 104 | 110 | 115 | 108 | 108 | 92 | 70.4 | 64.1 | 30.9 | 104 | 105 | 103 | 113 | 114 | 118 | 114 | 89.6 | 60.6 | 71.8 | 35.6 | 93.2 | 96.5 | 96.9 | 86.8 | 107 | 106 | 104 | 84.4 | 71.6 | 56.8 | 25.3
3 | O=C(O)CCNC(=O)c1ccc(/N=N/c2ccc(O)c(C(=O)O)c2)cc1 | 116 | 108 | 118 | 109 | 106 | 105 | 98.9 | 105 | 103 | 101 | 96.7 |  |  |  |  |  |  |  |  |  |  |  |  |  |  |  |  |  |  |  |  |  | 
4 | CCCCN(CCCC)CC(O)c1cc(Cl)cc2c1-c1ccc(Cl)cc1/C2=C/c1ccc(Cl)cc1 (stereo not drawn) | 93.1 | 95.5 | 93.1 | 108 | 99 | 107 | 111 | 105 | 109 | 104 | 106 | 80.9 | 95.7 | 85.6 | 95.7 | 95.1 | 98.4 | 94.6 | 89.9 | 98.6 | 91.2 | 78.9 | 88.9 | 94.4 | 89.3 | 89.6 | 78.9 | 94.4 | 94.5 | 97.7 | 101 | 80.5 | 91.3
5 | CC(C)OC(=O)[C@H](C)N[P@](=O)(OC[C@H]1O[C@@H](N2\C=C/C(=O)NC2=O)[C@](C)(F)[C@@H]1O)OC3=CC=CC=C3 | 105 | 111 | 122 | 120 | 99.4 | 131 | 106 | 98.4 | 57.7 | 17.6 | 18.5 | 125 | 120 | 130 | 122 | 121 | 125 | 125 | 120 | 88.1 | 14.3 | 9.48 | 101 | 109 | 106 | 120 | 111 | 115 | 107 | 105 | 86.8 | 17.3 | 9.7
6 | CCCNC(=O)Nc1ccc(Oc2ncnc3cc(OC)c(OC)cc23)cc1Cl | 101 | 93.5 | 108 | 104 | 102 | 101 | 89.8 | 98.1 | 81 | 80.4 | 47.6 | 118 | 125 | 125 | 146 | 117 | 104 | 103 | 98 | 88.2 | 92.1 | 57.7 | 94 | 109 | 104 | 113 | 90.7 | 98.5 | 92.8 | 78.9 | 73.3 | 75.5 | 41.7
7 | CCc1ccc(/C=C2/SC(=S)NC2=O)cc1 | 65.6 | 63.5 | 87.9 | 76.4 | 66.2 | 64.8 | 77.2 | 64.8 | 80.9 | 27.6 | 34.5 | 78 | 89.9 | 94 | 106 | 97 | 77.9 | 80 | 87.2 | 74.6 | 40.1 | 45.4 | 79.3 | 62.7 | 74 | 74.2 | 69.9 | 61 | 66.4 | 57.3 | 58.6 | 20.5 | 27
8 | Cc1ccc([S+](=O)([O-])OCC(=O)Nc2ccc(C(=O)O)c(O)c2)cc1 | 101 | 97.1 | 127 | 118 | 125 | 106 | 125 | 132 | 136 | 137 | 80.5 | 107 | 109 | 124 | 122 | 138 | 130 | 150 | 142 | 153 | 81.9 | 11.9 | 99.7 | 103 | 134 | 131 | 123 | 140 | 125 | 147 | 144 | 109 | 43.7
9 | CC#CCn1c(N2CCC[C@@H](N)C2)nc2c1c(=O)n(Cc1nc(C)c3ccccc3n1)c(=O)n2C | 107 | 114 | 115 | 42.6 | 115 | 104 | 112 | 109 | 111 | 116 | 83.3 | 105 | 97.9 | 105 | 40.3 | 114 | 102 | 112 | 108 | 109 | 102 | 88.7 | 96.8 | 94.4 | 88.7 | 45.6 | 108 | 96 | 108 | 93.9 | 93.5 | 99.1 | 75.2
10 | CC(N[C@H]1CCCC[C@@H]1NC(=O)c1ccc(Cl)cc1)c1cccc2ccccc12 (stereo partly drawn) | 98.2 | 105 | 110 | 114 | 111 | 112 | 101 | 115 | 112 | 118 | 119 | 92.2 | 102 | 109 | 120 | 107 | 108 | 121 | 113 | 119 | 138 | 110 | 120 | 112 | 109 | 114 | 116 | 114 | 125 | 127 | 115 | 133 | 121
